Assay results from ChEMBL document CHEMBL1130871, “Korundamine A, a novel HIV-inhibitory and antimalarial "hybrid" naphthylisoquinoline alkaloid heterodimer from Ancistrocladus korupensis” (Bioorg Med Chem Lett, 1998).
≈ marks a conversion by molar mass, not a printed value.

Key:
CCRF-CEM = experiment: Compound was tested for anti HIV-1 activity against CEM-SS/OC100 cell/virus strain; assay type: functional, cell-based; settings: Homo sapiens
Homo sapiens [1] = species: Homo sapiens; experiment: Compound was tested for anti HIV-1 activity against MT2/A17 cell/virus strain; assay type: functional, organism-based
Plasmodium falciparum = experiment: In vitro antimalarial activity against Plasmodium falciparum; assay type: functional, organism-based
[2] = system: Human immunodeficiency virus 1; experiment: Compound was tested for inhibition of cytopathic effects against human immunodeficiency virus type 1 (HIV-1); assay type: functional, organism-based
Homo sapiens [3] = species: Homo sapiens; experiment: Compound was tested for anti HIV-1 activity against MT2/G9106 cell/virus strain; assay type: functional, organism-based

EC50 (CCRF-CEM): 8 µM
EC50 (Homo sapiens [1]): 10 µM
IC50 (Plasmodium falciparum): 1.1 µg/mL (≈ 1.43 µM)
EC50 [2]: 2 µM
EC50 (Homo sapiens [3]): 6 µM
Structure (SMILES): COc1c2c(cc(O)c1-c1cc(-c3cc(-c4c(O)cc(O)c5c4C[C@@H](C)N[C@@H]5C)c4cc(C)cc(OC)c4c3O)c(O)c3c(OC)cc(C)cc13)C[C@@H](C)N=C2C
